# Source: publication PMC12573178, “Substrate-Guided Development of HDAC11-Selective Inhibitors Featuring α‑Amino Amide Zinc-Binding Groups” (ACS Omega, 2025)
# pIC50: −log10 of the molar value. Entries after “also recorded” stand apart in the source; their conditions may differ.
# Key:
# [1] = Compound stability in human serum; format: in vitro ADME; conditions: 37 °C, 150 μM 31, after 24 h
# Procedure: (§1) H Stability and permeability of 31 […]
# (§2) stability was performed as described 21. Briefly, 400 µl of human serum or cell lysate from HEK293 cells (1 mg/ml) were incubated at 37 °C with 150 μM of 31 with 5% (v/v) DMSO. Samples of 45 µl were taken out at different time points and quenched with 50 µl of aqueous urea (6 M) and 100 µl of ACN.
# (§3) Following centrifugation, 2 µl of a 2% (m/v) K 2CO3 solution in H2O and 1.5 µl of a 0.2 M Fmoc-OSu in ACN were added to the samples, which were then shaken at 1000 rpm for two hours at room temperature. This enabled the quantification of the residual amount of the compound via UPLC-UV/VIS at 260 nm. Compound peak areas were integrated. The experiments were performed in triplicate.
# (§4) After 24h, 7% of 31 remained […]
# (§5) detectable in cell lysate, and 20 % of 31 were still present in human serum (Figure S 38). […]
# (§6) shown as mean values relative to the peak intensity at 0 h. Error bars represent the SD of three replicates.
# (§7) For cell permeability studies, 40 µM of 31 were incubated with HEK293 cells in DMEM medium supplemented with 10 % FCS at 37°C overnight. The cells were harvested, washed extensively with ice-cold PBS and lysed in RIPA buffer. The sample was diluted 1:1 (v/v) with a solution of ACN : H 2O (1:1 )) before analyzing via UPLC-MS. […]
# SIRT3 = biological target: T1, SIRT3 (Homo sapiens, UniProt Q9NTG7); assay: SIRT3 discontinuous demyristoylation inhibition assay; format: biochemical
# T1 sequence (Q9NTG7 1-399): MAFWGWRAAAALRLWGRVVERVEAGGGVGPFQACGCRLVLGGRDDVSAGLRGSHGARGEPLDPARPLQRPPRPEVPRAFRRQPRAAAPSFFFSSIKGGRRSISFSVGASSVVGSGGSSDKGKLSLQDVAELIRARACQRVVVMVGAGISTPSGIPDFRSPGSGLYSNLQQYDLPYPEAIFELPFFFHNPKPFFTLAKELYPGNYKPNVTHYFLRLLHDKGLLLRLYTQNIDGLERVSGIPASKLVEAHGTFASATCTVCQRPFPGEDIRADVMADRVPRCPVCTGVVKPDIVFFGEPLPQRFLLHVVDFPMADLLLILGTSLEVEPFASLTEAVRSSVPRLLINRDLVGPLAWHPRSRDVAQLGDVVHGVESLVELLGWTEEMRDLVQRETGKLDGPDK
# Procedure: Inhibition of the enzymatic activity of HDACs was performed continuously for HDAC8, HDAC11, and SIRT2 and discontinuously for SIRT2, 3, and 6 using adequate substrates as described previously. , Experimental details are given in the Supporting Information.
# A. HDAC and SIRT deacylase activity assays […]
# 140 mM NaCl, 10 mM MgCl 2, 1 mM tris(2-carboxyethyl)phosphine (TCEP), and 0.2 mg/ml BSA, pH 7.4 adjusted with NaOH), HDAC11 buffer (20 mM HEPES, 70 µM TCEP and 2 mg/ml BSA, pH 7.4 adjusted with NaOH) or SIRT buffer (20 mM Tris, 150 mM NaCl, 5 mM MgCl2 and 2 mg/ml BSA pH 7.8 adjusted with HCl), respectively. The thiotrifluoracetylated substrate Abz-SRGGK(thio-TFA)FFRR-NH2 (50 µM) […]
# Aun is N-(2-aminobenzoyl)-11-aminoundecanoyl, was used for HDAC11 and Ac-EALPKK(Myr)T-C(Fluorescein)-G-NH2 (40 nM) was used for SIRT2 1-3. […]
# (substrate, DMSO, and Buffer) controls were included in every measurement and were set as 100% and 0%, respectively. The measured values were normalized accordingly. […]
# Reactions were stopped after 20 min by adding a constant volume of reaction mixture to stop solution (5 % acetonitrile (ACN) (v/v) and 1 % trifluoroacetic acid (TFA) (v/v) in dd. H 2O). The samples were analysed using HPLC-UV/VIS at λ Abs = 220 nm, λ Ex = 320 nm und λ Em = 420 nm. […]
# 100 nM, SIRT3: 200 nM, SIRT6: 500 nM). […] The samples were analysed using HPLC-UV/VIS at λ Abs = 360 nm. […]
# HEK293 cells = assay: Cell permeability / uptake, UPLC-MS of cell lysate; format: cell-based; conditions: 40 µM 31, 37 °C overnight, detected by mass spectrometry in cell lysate
# Procedure: as §1, §2, §3, §4, §5, §6, §7
# B Mass spectrum of the peak detected at 3.62 […]
# [2] = Compound stability in HEK293 cell lysate; format: in vitro ADME; conditions: HEK293 cell lysate (1 mg/ml), 37 °C, 150 μM 31, after 24 h
# Procedure: as §1, §2, §3, §4, §5, §6, §7
structure (smiles),measurement,setting,value
CCCCCCCCCCCCSC[C@@H](N)C(=O)NCCCC[C@@H]1NC(=O)[C@H](CCC(N)=O)NC1=O [Compound 31],compound remaining,[1],20%
same,pIC50,SIRT3,< 4.00
same,inhibition at 50 µM,SIRT3; 50 μM 31,1.6%
same,Uptake by HEK293 cells,HEK293 cells,uptake of compound 31 by HEK293 cells; also recorded: showed uptake by HEK293 cells
same,compound remaining,[2],7%
